The test system of the test is SK-OV-3 cells. Description: Effect of compounds on tryptophan catabolism in SK-OV-3 cell line (inhibition of kynurenine production, LC-MS/MS). The format is cell-based. To be noted: SK-OV-3 cell line, 24 h incubation, kynurenine in supernatant by LC-MS/MS, read-out: IC50 Ranges (ic50 values for inhibition of Kynurenine production). The essentials: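 Kynurenine in supernatants quantified by LC-MS/MS after 24 h compound exposure (37 °C; top 30 μM, eight 3-fold steps, duplicate) in DMEM F-12 containing 6 mg/mL L-tryptophan. Cells pre-plated overnight in McCoy's 5A with 10% FBS. Viability checked in parallel by ATP luminescence.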

pIC50: −log10 of the molar value. Where two headings read alike, the source gives them in different places.

As to `CN(Cc1cccs1)C(=O)Nc1ccc(Cl)c(Cl)c1` [Compound 200, 3-(3,4-dichlorophenyl)-1-methyl-1-(2-thienylmethyl)urea], where the note is “Homo sapiens, SK-OV-3, 24 h”, the negative-log IC50 (pIC50) (commonly the IC50 on a negative log10 scale, so that one unit is a factor of ten) is 5.30 to 6.00.

For `NC(=O)c1cc(CN(C(=O)Nc2ccc(F)cc2)C2CCCC2)ccc1F` [Compound 122, 5-[[cyclopentyl-[(4-fluorophenyl)carbamoyl]amino]methyl]-2-fluoro-benzamide], the pIC50 (Homo sapiens, SK-OV-3, 24 h) was 5.30 to 6.00.

Consider `O=C(Nc1ccccc1)N(Cc1cccs1)C1CCCC1` [Compound 19, 1-cyclopentyl-3-phenyl-1-(2-thienylmethyl)urea], for which the negative-log IC50 (pIC50) is 6.00 to 6.30.

With `O=C(Nc1ccc(Cl)cc1)N(Cc1ccno1)C1CCCC1` [Compound 128, 3-(4-chlorophenyl)-1-cyclopentyl-1-(isoxazol-5-ylmethyl)urea], for the setting “Homo sapiens, SK-OV-3, 24 h”, the pIC50 is 6.00 to 6.30.

`Cn1ncc2ccc(CN(C(=O)Nc3ccc(Cl)cc3)C3CCC3)cc21` [Compound 235, 3-(4-chlorophenyl)-1-cyclobutyl-1-[(1-methylindazol-6-yl)methyl]urea]: the pIC50 (Homo sapiens, SK-OV-3, 24 h) was over 7.00.

Turning to `O=C(Nc1ccc2c(c1)OCO2)N(Cc1cccs1)C1CCCC1` [Compound 7, 3-(1,3-benzodioxol-5-yl)-1-cyclopentyl-1-(2-thienylmethyl)urea], the pIC50 (Homo sapiens, SK-OV-3, 24 h) is 5.30 to 6.00.

Turning to `N#Cc1ccc(NC(=O)N(Cc2cc3ccccn3n2)C2CCC2)cc1` [Compound 207, 3-(4-cyanophenyl)-1-cyclobutyl-1-(pyrazolo[1,5-a]pyridin-2-ylmethyl)urea], the pIC50 (Homo sapiens, SK-OV-3, 24 h) was 6.30 to 7.00.

Turning to `CC(c1ccccn1)N(C(=O)Nc1ccc(Cl)cc1)C1CCCC1` (racemic) [Compound 174, 3-(4-chlorophenyl)-1-cyclopentyl-1-[1-(2-pyridyl)ethyl]urea], for the setting “Homo sapiens, SK-OV-3, 24 h”, the pIC50 is 6.30 to 7.00.

Regarding `Cc1ccc(CN(C(=O)Nc2nc(C#N)cs2)C2CCCC2)o1` [Compound 135, 3-(4-cyanothiazol-2-yl)-1-cyclopentyl-1-[(5-methyl-2-furyl)methyl]urea], the negative-log IC50 (pIC50) (Homo sapiens, SK-OV-3, 24 h) was 5.30 to 6.00.

With `COc1ccc(NC(=O)N(Cc2cccs2)C2CCCC2)cc1` [Compound 14, 1-cyclopentyl-3-(4-methoxyphenyl)-1-(2-thienylmethyl)urea], for the setting “Homo sapiens, SK-OV-3, 24 h”, the negative-log IC50 (pIC50) was under 5.30.

Regarding `Cc1ccc(CN(C(=O)Nc2ccc(-c3cnn(C)c3)nc2)C2CCCC2)o1` [Compound 160, 1-cyclopentyl-1-[(5-methyl-2-furyl)methyl]-3-[6-(1-methylpyrazol-4-yl)-3-pyridyl]urea], the negative logarithm of the IC50 (pIC50) (Homo sapiens, SK-OV-3, 24 h) is 5.30 to 6.00.

`CC(NC(=O)Nc1ccc(Cl)cc1)c1ccc(Cl)s1` (racemic) [Compound 199, 1-(4-chlorophenyl)-3-[1-(5-chloro-2-thienyl)ethyl]urea]: the negative logarithm of the IC50 (pIC50) (Homo sapiens, SK-OV-3, 24 h) is 6.00 to 6.30.

As for `COc1ccc(N(Cc2cccs2)C(=O)NC2CCCCC2)cc1` [Compound 202, 3-cyclohexyl-(4-methoxyphenyl)-1-(2-thienylmethyl) urea], the pIC50 (Homo sapiens, SK-OV-3, 24 h) was 5.30 to 6.00.

`Cc1ncc(CN(C(=O)Nc2ccc(F)cc2)C2CCCC2)o1` [Compound 145, 1-cyclopentyl-3-(4-fluorophenyl)-1-[(2-methyloxazol-5-yl)methyl]urea]: the pIC50 (Homo sapiens, SK-OV-3, 24 h) was 5.30 to 6.00.

In the case of `N#Cc1ccc(NC(=O)N(Cc2cc3ccccc3o2)C2CCCC2)cc1` [Compound 132, 1-(benzofuran-2-ylmethyl)-3-(4-cyanophenyl)-1-cyclopentyl-urea], the negative logarithm of the IC50 (pIC50) (Homo sapiens, SK-OV-3, 24 h) was 6.30 to 7.00.

As for `CN(C(=O)N(Cc1cccs1)C1CCCC1)c1ccccc1` [Compound 23, 1-cyclopentyl-3-methyl-3-phenyl-1-(2-thienylmethyl)urea], the negative logarithm of the IC50 (pIC50) (Homo sapiens, SK-OV-3, 24 h) was under 5.30.

In the case of `C#Cc1cnc(NC(=O)N(Cc2ccc(C)o2)C2CCCC2)nc1` [Compound 17, 1-cyclopentyl-3-(5-ethynylpyrimidin-2-yl)-1-[(5-methyl-2-furyl)methyl]urea], under “Homo sapiens, SK-OV-3, 24 h”, the negative-log IC50 (pIC50) is 6.30 to 7.00.

`N#CCc1ccc(NC(=O)N(Cc2cccs2)C2CCCC2)cc1` [Compound 6, 3-[4-(cyanomethyl)phenyl]-1-cyclopentyl-1-(2-thienylmethyl)urea]: the negative-log IC50 (pIC50) (Homo sapiens, SK-OV-3, 24 h) is 5.30 to 6.00.

For the compound `Cc1ccc(CN(C(=O)Nc2ccc(C#Cc3ccccc3)cc2)C2CCCC2)o1` [Compound 155, 1-cyclopentyl-1-[(5-methyl-2-furyl)methyl]-3-[4-(2-phenylethynyl)phenyl]urea], the pIC50 (Homo sapiens, SK-OV-3, 24 h) was 6.00 to 6.30.

`N#Cc1ccc(NC(=O)N(Cc2cn3ccccc3n2)C2CCC2)cc1` [Compound 210, 3-(4-cyanophenyl)-1-cyclobutyl-1-(imidazo[1,2-a]pyridin-2-ylmethyl)urea]: the negative logarithm of the IC50 (pIC50) (Homo sapiens, SK-OV-3, 24 h) was 5.30 to 6.00.

Turning to `CC1(CN(C(=O)Nc2ccccc2)C2CCCC2)CCNCC1` [Compound 85, 1-cyclopentyl-1-[(4-methyl-4-piperidyl)methyl]-3-phenyl-urea], under “Homo sapiens, SK-OV-3, 24 h”, the negative logarithm of the IC50 (pIC50) is 5.30 to 6.00.

Regarding `Cc1oncc1N(Cc1cccc(C(F)(F)F)c1)C(=O)Nc1ccc(C#N)cc1` [Compound 293, 3-(4-cyanophenyl)-1-(5-methylisoxazol-4-yl)-1-[[3-(trifluoromethyl)phenyl]methyl]urea], the negative logarithm of the IC50 (pIC50) (Homo sapiens, SK-OV-3, 24 h) was 6.30 to 7.00.

Consider `Cc1ccc(CN(C(=O)Nc2ccc(Cl)cc2)c2nccn2C)o1` [Compound 182, 3-(4-chlorophenyl)-1-[(5-methyl-2-furyl)methyl]-1-(1-methylimidazol-2-yl) urea], for which the negative logarithm of the IC50 (pIC50) (Homo sapiens, SK-OV-3, 24 h) is 6.30 to 7.00.

In the case of `Cc1ccc(CN(C(=O)Nc2ccccc2)C2CCCC2)o1` [Compound 176, 1-cyclopentyl-1-[(5-methyl-2-furyl)methyl]-3-phenyl-urea], the pIC50 (Homo sapiens, SK-OV-3, 24 h) is 6.30 to 7.00.

`Cc1ccc(CN(C(=O)Nc2ccc(Cl)cc2)c2ccn(C)n2)o1` [Compound 226, 3-(4-chlorophenyl)-1-[(5-methyl-2-furyl)methyl]-1-(1-methylpyrazol-3-yl)urea]: the negative-log IC50 (pIC50) (Homo sapiens, SK-OV-3, 24 h) was 6.30 to 7.00.

As for `N#Cc1ccc(NC(=O)N(Cc2ccc3scnc3c2)C2CCC2)cc1` [Compound 261, 1-(1,3-benzothiazol-5-ylmethyl)-3-(4-cyanophenyl)-1-cyclobutyl-urea], the pIC50 (Homo sapiens, SK-OV-3, 24 h) was over 7.00.

Take `O=C(Nc1ccc(Cl)cc1)N(Cc1cc2ccccn2n1)C1CCC1` [Compound 239, 3-(4-chlorophenyl)-1-cyclobutyl-1-(pyrazolo[1,5-a]pyridin-2-ylmethyl)urea]: the negative-log IC50 (pIC50) (Homo sapiens, SK-OV-3, 24 h) was 6.30 to 7.00.

As to `CC1(CN(C(=O)Nc2ccc(F)cc2)C2CCCC2)CCNCC1` [Compound 86, 1-cyclopentyl-3-(4-fluorophenyl)-1-[(4-methyl-4-piperidyl)methyl]urea], the pIC50 (Homo sapiens, SK-OV-3, 24 h) is 5.30 to 6.00.

Turning to `Cc1ccc(CN(C(=O)Nc2ccc(N3CCCC3=O)cc2)C2CCCC2)o1` [Compound 103, 1-cyclopentyl-1-[(5-methyl-2-furyl)methyl]-3-[4-(2-oxopyrrolidin-1-yl)phenyl]urea], where the note is “Homo sapiens, SK-OV-3, 24 h”, the pIC50 is 5.30 to 6.00.

For `CCc1ccc(NC(=O)N(Cc2ccc(C)s2)C2CCCC2)cc1` [Compound 25, 1-cyclopentyl-3-(4-ethylphenyl)-1-[(5-methyl-2-thienyl)methyl]urea], the negative-log IC50 (pIC50) (Homo sapiens, SK-OV-3, 24 h) is 6.30 to 7.00.

Take `CCc1ccc(NC(=O)N(Cc2ccccc2Cl)C2CCCC2)cc1` [Compound 39, 1-[(2-chlorophenyl)methyl]-1-cyclopentyl-3-(4-ethylphenyl)urea]: the pIC50 (Homo sapiens, SK-OV-3, 24 h) was under 5.30.

Consider `Cc1ccc(CN(C(=O)Nc2ccccc2)C2CCCC2)s1` [Compound 24, 1-cyclopentyl-1-[(5-methyl-2-thienyl)methyl]-3-phenyl-urea], for which the pIC50 (Homo sapiens, SK-OV-3, 24 h) is under 5.30.

Consider `Cc1ccc(CN(C(=O)Nc2nc(-c3ccccn3)cs2)C2CCCC2)o1` [Compound 133, 1-cyclopentyl-1-[(5-methyl-2-furyl)methyl]-3-[4-(2-pyridyl)thiazol-2-yl]urea], for which, for the setting “Homo sapiens, SK-OV-3, 24 h”, the negative-log IC50 (pIC50) is 6.30 to 7.00.

As to `O=C(Nc1ccc(Cl)cc1)N(Cc1cccc2ncsc12)C1CCC1` [Compound 262, 1-(1,3-benzothiazol-7-ylmethyl)-3-(4-chlorophenyl)-1-cyclobutyl-urea], the pIC50 (Homo sapiens, SK-OV-3, 24 h) is over 7.00.

For `Cc1ccc(CN(C(=O)Nc2ccc3c(c2)CN(C)C3=O)C2CCCC2)o1` [Compound 312, 1-cyclopentyl-1-[(5-methyl-2-furyl)methyl]-3-(2-methyl-1-oxo-isoindolin-5-yl)urea], for the setting “Homo sapiens, SK-OV-3, 24 h”, the pIC50 was 5.30 to 6.00.

Consider `Cc1ccc(CN(C(=O)Nc2ccc(Cl)cc2)c2ncccn2)o1` [Compound 327, 3-(4-chlorophenyl)-1-[(5-methyl-2-furyl)methyl]-1-pyrimidin-2-yl-urea], for which the negative logarithm of the IC50 (pIC50) (Homo sapiens, SK-OV-3, 24 h) is 5.30 to 6.00.

As to `COc1cc(NC(=O)N(Cc2ccc(C)o2)C2CCCC2)ccc1C#N` [Compound 205], the negative-log IC50 (pIC50) (Homo sapiens, SK-OV-3, 24 h) was 6.30 to 7.00.

Consider `CC(c1cccc(C#N)c1)N(C(=O)Nc1ccc(F)cc1)C1CCCC1` (racemic) [Compound 187, 1-[1-(3-cyanophenyl)ethyl]-1-cyclopentyl-3-(4-fluorophenyl)urea], for which the pIC50 (Homo sapiens, SK-OV-3, 24 h) is 6.30 to 7.00.

For the compound `Cc1ccc(CN(C(=O)Nc2ccc(F)cc2)c2ncco2)o1` [Compound 180, 3-(4-fluorophenyl)-1-[(5-methyl-2-furyl)methyl]-1-oxazol-2-yl-urea], the negative-log IC50 (pIC50) (Homo sapiens, SK-OV-3, 24 h) is under 5.30.

Turning to `Cc1ccc(CN(C(=O)Nc2ccc(C#N)cc2)c2cnoc2)o1` [Compound 304, 3-(4-cyanophenyl)-1-isoxazol-4-yl-1-[(5-methyl-2-furyl)methyl]urea], where the note is “Homo sapiens, SK-OV-3, 24 h”, the pIC50 was 6.30 to 7.00.

With `Cc1ccc(CN(C(=O)Nc2nnc(-c3cc4ccccc4o3)o2)C2CCCC2)o1` [Compound 151, 3-[5-(benzofuran-2-yl)-1,3,4-oxadiazol-2-yl]-1-cyclopentyl-1-[(5-methyl-2-furyl)methyl]urea], the negative-log IC50 (pIC50) (Homo sapiens, SK-OV-3, 24 h) was 6.00 to 6.30.

For the compound `CC(c1cccc(C#N)c1)N(C(=O)Nc1ccc(Cl)cc1)C1CCCC1` (racemic) [Compound 173, 3-(4-chlorophenyl)-1-[1-(3-cyanophenyl)ethyl]-1-cyclopentyl-urea], the pIC50 (Homo sapiens, SK-OV-3, 24 h) was over 7.00.

As to `Cc1ccc(CN(C(=O)Nc2ccc3c(c2)CNC3=O)C2CCCC2)o1` [Compound 307], the pIC50 (Homo sapiens, SK-OV-3, 24 h) is under 5.30.

Turning to `N#Cc1ccc(NC(=O)N(Cc2ccc3ncoc3c2)C2CCC2)cc1` [Compound 209, 1-(1,3-benzoxazol-6-ylmethyl)-3-(4-cyanophenyl)-1-cyclobutyl-urea], the pIC50 (Homo sapiens, SK-OV-3, 24 h) was 6.00 to 6.30.
